This passage reports Ki results from patent publication US8877745B2, “CCR2 receptor antagonists, method for producing the same, and use thereof as medicaments” (Boehringer Ingelheim International GmbH, priority 2010, dated 2014).

T1 sequence (P41597 whole entry): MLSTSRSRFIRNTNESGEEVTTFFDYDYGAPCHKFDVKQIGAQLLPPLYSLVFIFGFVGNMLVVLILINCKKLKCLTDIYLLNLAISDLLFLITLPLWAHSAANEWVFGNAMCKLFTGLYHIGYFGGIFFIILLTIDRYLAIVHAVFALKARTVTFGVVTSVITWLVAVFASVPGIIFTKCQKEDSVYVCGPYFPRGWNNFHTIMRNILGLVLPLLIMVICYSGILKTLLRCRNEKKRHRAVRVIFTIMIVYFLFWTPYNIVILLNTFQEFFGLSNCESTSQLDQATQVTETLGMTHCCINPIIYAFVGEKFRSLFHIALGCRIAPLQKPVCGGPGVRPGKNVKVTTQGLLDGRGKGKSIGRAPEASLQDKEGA

The test has as its target T1, CCR2 (Homo sapiens, UniProt P41597).
T1 construct: Membranes were prepared from THP-1 cells; endogenous in cells; host or cells: THP-1 (human acute monocytic leukaemia cells), membrane preparation
The test is described as follows: CCR2 receptor membrane binding assay ([125I]MCP-1, THP-1 cell membranes, SPA beads). The conditions noted are these: THP-1 membranes, [125I]MCP-1, bound radioactivity determined after 8 h; read-out: hKi. As to the method: The above exemplary substances have been tested for binding to CCR2 using a binding assay as outlined herein below:
THP-1 cells (human acute monocytic leukaemia cells) were cultured under standardized conditions at 37° C. and 5% CO2 in a humidified incubator. THP-1 cells were cultivated in RPMI 1640 medium (Gibco 21875) containing 1% MEM-NEAA (Gibso 11140) 2 mM L-glutamine, 1.5 g/L sodium bicarbonate, 4.5 g/L glucose, 10 mM HEPES and 1.0 mM sodium pyruvate, 90%; 10% fetal calf serum (FCS Gibco 10500-064).
Membranes were prepared from THP-1 cells. THP-1 cells were centrifuged at 300×g at 4° C. for 10 min. The cell pellet was resuspended in Phosphate Buffer Saline (PBS, including 10 μM Pefabloc and a protease inhibitor mix ‘complete’, Boehringer Mannheim (1 tablet/50 ml)), to a concentration of […]. The membrane preparation was performed by disrupting the cells by nitrogen […] (at 50 bar, for 1 h) in a “Nitrogen Bombe” (Parr Instrument). Cell debris was removed by centrifugation (800×g at 4° C., 1 min). The supernatant was centrifuged at 80000×g, 4° C. for 30 min to sediment the cell membranes. Usually 50 mg of protein (Bradford assay) were yielded from 1×10E9 cells. The membranes were resuspended in 25 mM HEPES, 25 mM MgCl2, 1 mM CaCl2, 10% Glycerine for storage in aliquots at −80° C. in 25 mM HEPES, 25 mM MgCl2, 1 mM CaCl2, 10% Glycerine and stored at −80° C.
Receptor Membrane Binding Assay:
Perkin Elmer NEX 332 Jod 125 MCP-1, Stock: 2200 Ci/mmol solved in […] assay buffer, stored at −20° C. THP-1 membrane were adjusted with 25 mM HEPES, pH 7.2; 5 mM MgCl2; 0.5 mM CaCl2; 0.2% BSA assay buffer to a concentration of 2.5 μg/15 μl. Amersham Biosciences PVT-WGA Beads (RPNQ0001) were adjusted with assay buffer to a concentration of 0.24 mg/30 μl. For preparation of the membrane-bead-suspension membranes and beads were incubated for 30 min at RT under rotation (60 rpm) with a ratio of 1:2. Test compounds dissolved in 100% DMSO to a concentration of 10 mM and are further diluted with 100% DMSO to 1 mM. All additional compound dilutions were obtained with assay buffer, final 1% DMSO. Compounds, membrane-bead-suspension and [^125I]MCP-1 (ca. 25000 cpm/10 μl) were incubated. Bound radioactivity was determined by scintillation counter after 8 h. Determination of affinity of test compounds (dissociation constant hKi) is calculated by iterative fitting of experimental data using the “easy sys” program, which is based on law of mass action (Schittkowski K. (1994), Numerische Mathematik, Vol. 68, 129-142).
With `Cc1c(C(=O)N2CCC(N3CCC(N(C)S(C)(=O)=O)CC3)CC2)ncnc1N1CCCCC1c1cccc(Cl)c1` (centres unmarked) [Example 35], the Ki turned out to be 2860 nM.

Turning to `COC1COCCC1NC1CCN(C(=O)c2ncnc(N3CCN(c4c(Cl)cncc4Cl)CC3)c2C)CC1` (centres unmarked) [Example 62aj], the Ki is 35 nM.

Consider `COC1COCCC1NC1CCN(C(=O)c2ncnc(N3CCN(c4ccccc4C)CC3)c2C)CC1` (centres unmarked) [Example 62m], for which the Ki is 300 nM.

With `COC1COCCC1NC1CCN(C(=O)c2ncnc(N3CCC(c4ccc(Cl)cc4)C3)c2C)CC1` (centres unmarked) [Example 53], the Ki is 172 nM.

Consider `CO[C@@H]1COCC[C@@H]1NC1CCN(C(=O)c2ncnc(N3CCc4ccc(OC(F)(F)F)cc4C3)c2C)CC1` [Example 65], for which the Ki is 16 nM.

`Cc1c(C(=O)N2CCC(N3CCC(N(C)S(C)(=O)=O)CC3)CC2)ncnc1N1CCOC(c2ccc(Cl)cc2)C1` (centres unmarked) [Example 3]: the Ki turned out to be 3690 nM.

As to `Cc1c(C(=O)N2CCC(N3CCC(N(C)S(C)(=O)=O)CC3)CC2)ncnc1N1CCCC(c2ccc(C(F)(F)F)cc2)C1` (centres unmarked) [Example 34], the Ki was found to be 4250 nM.

For the molecule `COC1COCCC1NC1CCN(C(=O)c2ncnc(N3CCN(c4ccccc4Cl)CC3)c2C)CC1` (centres unmarked) [Example 62aa], the Ki was 89 nM.

Take `COC1COCCC1NC1CCN(C(=O)c2ncnc(N3CCc4ccc(C(C)C)cc4C3)c2C)CC1` (centres unmarked) [Example 62k]: the Ki turned out to be 12 nM.

For the molecule `COC1COCCC1NC1CCN(C(=O)c2ncnc(N3CCCC(c4cccc(C(F)(F)F)c4)C3)c2C)CC1` (centres unmarked) [Example 9], the Ki is 2150 nM.

As for `COc1c(C(=O)N2CCC(N3CCC(N(C)S(C)(=O)=O)CC3)CC2)ncnc1N1CCc2ccc(OC(F)(F)F)cc2C1` [Example 69], the Ki was 62 nM.

As to `Cc1c(C(=O)N2CCC(N[C@H]3CCOC[C@H]3F)CC2)ncnc1N1CCc2ccc(Br)cc2C1` [Example 69ac], the Ki was 96 nM.

For `Cc1c(C(=O)N2CCC(N3CCC(N(C)S(C)(=O)=O)CC3)CC2)ncnc1N1CCC2(C=Cc3ccccc32)CC1` [Example 11], the Ki was found to be 2160 nM.

Consider `COC1COCCC1NC1CCN(C(=O)c2ncnc(N3CCCN(c4ccc(Cl)cc4)CC3)c2C)CC1` (centres unmarked) [Example 62j], for which the Ki came out at 516 nM.

As for `Cc1c(C(=O)N2CCC(N3CCC(NS(C)(=O)=O)CC3)CC2)ncnc1N1CCc2ccc(C(F)(F)F)cc2C1` [Example 37], the Ki is 18 nM.

Regarding `Cc1c(C(=O)N2CCC(N3CCC(N(C)S(C)(=O)=O)CC3)CC2)ncnc1N1CCC(c2ccc(C(F)(F)F)cc2)C1` (centres unmarked) [Example 45], the Ki is 1170 nM.

With `COC1COCCC1NC1CCN(C(=O)c2ncnc(N3CCN(c4ccc5c(c4)OCO5)CC3)c2C)CC1` (centres unmarked) [Example 62q], the Ki is 780 nM.

Regarding `COC1COCCC1NC1CCN(C(=O)c2ncnc(N3CCCC(c4cccc(F)c4)C3)c2C)CC1` (centres unmarked) [Example 12], the Ki came to 1100 nM.

In the case of `COC1COCCC1NC1CCN(C(=O)c2ncnc(N3CCC4(CC3)CC(=O)c3cc(F)ccc3O4)c2C)CC1` (centres unmarked) [Example 62g], the Ki is 538 nM.

Take `COc1nc(C(=O)N2CCC(NC3CCOCC3)CC2)c(C)c(N2CCc3ccc(C(F)(F)F)cc3C2)n1` [Example 69w]: the Ki was 5 nM.

On to `COC1COCCC1NC1CCN(C(=O)c2ncnc(N3CCC(c4ccccc4Cl)C3)c2C)CC1` (centres unmarked) [Example 62e], for which the Ki was determined as 419 nM.

With `Cc1c(C(=O)N2CCC(N3CCC(N(C)S(C)(=O)=O)CC3)CC2)ncnc1N1CCC(c2cccc(C(F)(F)F)c2)C1` (centres unmarked) [Example 46], the Ki came out at 1170 nM.

Consider `COC1COCCC1NC1CCN(C(=O)c2ncnc(N3CCCC(c4ccc(C)cc4)C3)c2C)CC1` (centres unmarked) [Example 33], for which the Ki was found to be 2110 nM.

As to `COC1COCCC1NC1CCN(C(=O)c2ncnc(N3CCCc4ccccc4C3)c2C)CC1` (centres unmarked) [Example 58], the Ki worked out at 4240 nM.

`COC1COCCC1NC1CCN(C(=O)c2ncnc(N3CCN(c4cccc(C)c4C)CC3)c2C)CC1` (centres unmarked) [Example 62ah]: the Ki was found to be 41 nM.

`COC1COCCC1NC1CCN(C(=O)c2ncnc(N3CCc4c(Cl)cc(Cl)cc4C3)c2C)CC1` (centres unmarked) [Example 39]: the Ki amounted to 49 nM.

Consider `COC1COCCC1NC1CCN(C(=O)c2ncnc(N3CCC4(CC3)CC(=O)c3cc(Br)ccc3O4)c2C)CC1` (centres unmarked) [Example 62i], for which the Ki was 184 nM.

`COc1c(C(=O)N2CCC(N[C@@H]3CCOC[C@@H]3OC)CC2)ncnc1N1CCc2ccc(C(F)(F)F)cc2C1` [Example 67]: the Ki was 21 nM.

Take `COc1nc(C(=O)N2CCC(N[C@@H]3CCOC[C@@H]3OC)CC2)c(C)c(N2CCc3ccc(C(F)(F)F)cc3C2)n1` [Example 69i]: the Ki worked out at 4 nM.

Consider `CO[C@@H]1COCC[C@@H]1NC1CCN(C(=O)c2ncnc(N3CCc4ccc(Br)cc4C3)c2C)CC1` [Example 69y], for which the Ki stood at 7 nM.

As for `Cc1c(C(=O)N2CCC(NC3CCOCC3)CC2)ncnc1N1CCc2ccc(C(F)(F)F)cc2C1` [Example 69r], the Ki amounted to 7 nM.

With `COc1ccc(C2CCN(c3ncnc(C(=O)N4CCC(N5CCC(N(C)S(C)(=O)=O)CC5)CC4)c3C)CC2)cc1` [Example 21], the Ki is 4410 nM.

With `CO[C@@H]1COCC[C@@H]1N(C)C1CCN(C(=O)c2ncnc(N3CCc4ccc(C(F)(F)F)cc4C3)c2C)CC1` [Example 85], the Ki was 5 nM.

For the molecule `COC1COCCC1NC1CCN(C(=O)c2ncnc(N3CCN(c4ccc(Cl)cc4C)CC3)c2C)CC1` (centres unmarked) [Example 62y], the Ki turned out to be 12 nM.

As to `CO[C@@H]1COCC[C@@H]1NC1CCN(C(=O)c2cc(N3CCc4ccc(C(F)(F)F)cc4C3)ncn2)CC1` [Example 62a], the Ki is 566 nM.

In the case of `COC1COCCC1NC1CCN(C(=O)c2ncnc(N3CCOC(c4ccc(Cl)cc4)C3)c2C)CC1` (centres unmarked) [Example 4], the Ki stood at 1090 nM.

Take `COC1COCCC1NC1CCN(C(=O)c2ncnc(N3CCC(c4ccc(C)cc4)CC3)c2C)CC1` (centres unmarked) [Example 13]: the Ki was found to be 739 nM.

In the case of `Cc1c(C(=O)N2CCC(N3CCCC(O)C3)CC2)ncnc1N1CCc2ccc(C(F)(F)F)cc2C1` (centres unmarked) [Example 77], the Ki is 410 nM.

Take `CO[C@@H]1COCC[C@@H]1NC1CCN(C(=O)c2ncnc(N3CCC4(CCc5cc(Cl)ccc5O4)CC3)c2C)CC1` [Example 62an]: the Ki came to 12 nM.

For `COC1COCCC1NC1CCN(C(=O)c2ncnc(N3CCC(c4ccc(Cl)cc4)CC3)c2C)CC1` (centres unmarked) [Example 18], the Ki came out at 331 nM.

As for `Cc1c(C(=O)N2CCCN(C)CC2)ncnc1N1CCc2ccc(C(F)(F)F)cc2C1` [Example 81], the Ki worked out at 2320 nM.

Regarding `COC1COCCC1NC1CCN(C(=O)c2ncnc(N3CCN(c4ccccc4C(F)(F)F)CC3)c2C)CC1` (centres unmarked) [Example 62z], the Ki came to 30 nM.

Regarding `COC1COCCC1NC1CCN(C(=O)c2ncnc(N3CCCC(c4ccccc4)CC3)c2C)CC1` (centres unmarked) [Example 62n], the Ki amounted to 192 nM.

In the case of `CCN(CC)C1CCN(C(=O)c2ncnc(N3CCc4ccc(C(F)(F)F)cc4C3)c2C)C1` (centres unmarked) [Example 75], the Ki stood at 657 nM.

Consider `COC1COCCC1NC1CCN(C(=O)c2ncnc(N3CCc4ccc(OC(F)(F)F)cc4C3)c2C)CC1` (centres unmarked) [Example 8], for which the Ki was 11 nM.

For `Cc1c(C(=O)N2CCC(N[C@@H]3CCOC[C@@H]3F)CC2)ncnc1N1CCc2ccc(Br)cc2C1` [Example 69ab], the Ki was 37 nM.

With `COC1COCCC1NC1CCN(C(=O)c2ncnc(N3CCc4c(Cl)cccc4C3)c2C)CC1` (centres unmarked) [Example 38], the Ki turned out to be 168 nM.

For the molecule `CO[C@@H]1COCC[C@@H]1NC1CCN(C(=O)c2ncnc(N3CCc4ccc(Cl)cc4C3)c2C)CC1` [Example 66], the Ki amounted to 22 nM.

With `Cc1c(C(=O)N2CCCN(CCO)CC2)ncnc1N1CCc2ccc(C(F)(F)F)cc2C1` [Example 76], the Ki is 3400 nM.

`CO[C@H]1COCC[C@H]1NC1CCN(C(=O)c2nc(C3CC3)nc(N3CCc4ccc(C(F)(F)F)cc4C3)c2C)CC1` [Example 69q]: the Ki was 0.7 nM.

`COC1COCCC1NC1CCN(C(=O)c2ncnc(N3CCCC4(CCCCC4)C3)c2C)CC1` (centres unmarked) [Example 62f]: the Ki amounted to 9560 nM.

On to `Cc1c(C(=O)N2CCC(N3CCC(N(C)S(C)(=O)=O)CC3)CC2)ncnc1N1CCc2ccc(C(F)(F)F)cc2C1` [Example 1], for which the Ki amounted to 15 nM.

Turning to `COC1COCCC1NC1CCN(C(=O)c2ncnc(N3CCC(c4ccccc4)C3)c2C)CC1` (centres unmarked) [Example 50], the Ki is 451 nM.
